According to ChEMBL document CHEMBL1147123, “Lipoxygenase inhibitory constituents of the fruits of noni (Morinda citrifolia) collected in Tahiti” (J Nat Prod, 2007):

Assays:
[1] = target: T1, Polyunsaturated fatty acid 5-lipoxygenase (Homo sapiens, UniProt P09917); assay: Inhibition of 5LOX in human PBMC by EIA assay
T1 sequence (P09917 whole entry): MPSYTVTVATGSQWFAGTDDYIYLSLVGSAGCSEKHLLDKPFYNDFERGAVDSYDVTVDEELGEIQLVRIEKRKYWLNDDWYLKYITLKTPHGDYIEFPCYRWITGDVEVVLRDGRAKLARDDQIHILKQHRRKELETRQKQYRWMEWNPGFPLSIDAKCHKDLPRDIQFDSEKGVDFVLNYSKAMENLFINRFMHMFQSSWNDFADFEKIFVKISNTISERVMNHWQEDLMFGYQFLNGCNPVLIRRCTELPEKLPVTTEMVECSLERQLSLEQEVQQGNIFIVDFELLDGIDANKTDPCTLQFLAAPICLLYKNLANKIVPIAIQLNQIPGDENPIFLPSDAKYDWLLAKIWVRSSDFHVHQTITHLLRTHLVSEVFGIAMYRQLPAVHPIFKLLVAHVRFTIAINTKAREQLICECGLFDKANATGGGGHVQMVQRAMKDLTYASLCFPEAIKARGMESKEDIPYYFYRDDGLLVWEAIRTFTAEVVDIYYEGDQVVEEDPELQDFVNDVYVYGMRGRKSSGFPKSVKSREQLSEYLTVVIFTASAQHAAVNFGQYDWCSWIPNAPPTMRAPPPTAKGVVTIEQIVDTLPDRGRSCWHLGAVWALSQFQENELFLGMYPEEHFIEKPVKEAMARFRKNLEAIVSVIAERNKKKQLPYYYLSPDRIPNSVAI

[2] = target: T2, Prostaglandin G/H synthase 2 (Homo sapiens, UniProt P35354); assay: Inhibition of human recombinant COX2 expressed in insect Sf21 cells by EIA assay
T2 sequence (P35354 whole entry): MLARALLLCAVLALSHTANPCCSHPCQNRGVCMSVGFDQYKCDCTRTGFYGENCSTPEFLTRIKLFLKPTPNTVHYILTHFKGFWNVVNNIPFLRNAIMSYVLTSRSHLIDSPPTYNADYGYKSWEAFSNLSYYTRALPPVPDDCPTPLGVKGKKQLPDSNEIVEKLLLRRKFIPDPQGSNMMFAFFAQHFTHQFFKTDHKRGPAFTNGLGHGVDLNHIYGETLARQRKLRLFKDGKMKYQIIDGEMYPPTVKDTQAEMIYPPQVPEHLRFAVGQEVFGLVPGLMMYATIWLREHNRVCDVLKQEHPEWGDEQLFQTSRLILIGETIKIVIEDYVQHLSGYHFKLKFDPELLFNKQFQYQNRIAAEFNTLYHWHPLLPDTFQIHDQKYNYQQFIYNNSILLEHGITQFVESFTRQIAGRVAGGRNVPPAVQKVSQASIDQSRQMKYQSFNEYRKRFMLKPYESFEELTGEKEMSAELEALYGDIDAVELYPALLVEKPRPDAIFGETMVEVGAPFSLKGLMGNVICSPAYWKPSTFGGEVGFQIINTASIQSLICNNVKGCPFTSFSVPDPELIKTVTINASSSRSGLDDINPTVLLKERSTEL

[3] = target: T3, Polyunsaturated fatty acid lipoxygenase ALOX15 (Oryctolagus cuniculus, UniProt P12530); assay: Inhibition of 15LOX in rabbit reticulocytes by spectrophotometric assay
T3 sequence (P12530 whole entry): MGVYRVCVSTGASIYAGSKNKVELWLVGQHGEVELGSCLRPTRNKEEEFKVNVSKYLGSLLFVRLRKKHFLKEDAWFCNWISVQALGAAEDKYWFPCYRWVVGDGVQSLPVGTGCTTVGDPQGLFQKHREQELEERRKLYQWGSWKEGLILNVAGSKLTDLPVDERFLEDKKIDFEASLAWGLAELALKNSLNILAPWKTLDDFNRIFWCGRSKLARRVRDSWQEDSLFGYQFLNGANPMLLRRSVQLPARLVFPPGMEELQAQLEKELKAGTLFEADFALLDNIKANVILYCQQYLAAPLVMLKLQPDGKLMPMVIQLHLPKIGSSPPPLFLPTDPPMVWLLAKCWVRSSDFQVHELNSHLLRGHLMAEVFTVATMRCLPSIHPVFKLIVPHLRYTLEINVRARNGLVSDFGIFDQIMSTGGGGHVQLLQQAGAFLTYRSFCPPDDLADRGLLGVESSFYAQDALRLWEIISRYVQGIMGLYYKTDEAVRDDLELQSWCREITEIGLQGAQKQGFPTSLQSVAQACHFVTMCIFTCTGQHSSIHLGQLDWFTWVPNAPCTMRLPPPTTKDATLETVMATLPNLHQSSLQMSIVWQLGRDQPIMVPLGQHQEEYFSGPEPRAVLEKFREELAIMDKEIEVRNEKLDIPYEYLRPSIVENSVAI

Row | Compound | IC50 [1] [µM] | IC50 [2] [µM] | IC50 [3] [µM]
1 | O=C1O[C@H](c2ccc(O)c(O)c2)[C@H]2CO[C@H](c3ccc(O)c(O)c3)[C@@H]12 | 5.6 | 90.2 | 0.52
2 | Oc1ccc([C@@H]2OC[C@@H]3[C@H]2CO[C@H]3c2ccc(O)c(O)c2)cc1O | 5.9 | > 100 | 0.52
3 | OC[C@@H]1[C@@H]([C@H](O)c2ccc(O)c(O)c2)CO[C@@H]1c1ccc(O)c(O)c1 | 9.2 | 73.9 | 0.76
4 | COc1cc([C@@H]2OC[C@H]3[C@@H]2CO[C@H]3c2ccc(O)c(OC)c2)ccc1O [(-)-PINORESINOL] | 13.8 | – | –
5 | COc1cc2oc(=O)ccc2cc1O [ISOSCOPOLETIN] | > 100 | > 100 | –
6 | O=c1c(O)c(-c2ccc(O)cc2)oc2cc(O)cc(O)c12 [KAEMPFEROL] | – | > 100 | –
7 | COc1cc2ccc(=O)oc2cc1O [SCOPOLETIN] | > 100 | > 100 | –
